From patent US9499550B2 (BRISTOL-MYERS SQUIBB COMPANY, priority 2012, dated 2016)

Key:
[1] = tested on: HCV genotype 1a (H77 strain) replicon in HUH-7 cells; test: HCV replicon luciferase reporter assay, genotype 1a; assay type: cell-based; details: Hepatitis C virus, Huh-7, 72 h, HCV genotype 1a replicon luciferase assay, 3 days incubation, range class, read-out: LE_1a (EC50, range)
Summary of the method: (§1)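 Replicon inhibition for both genotypes was measured as Renilla luciferase signal (EnduRen, 7.5 μM final, 2 h) after 3-day, 37° C exposure of replicon-bearing HUH-7 cells in 4% FCS DMEM, 0.5% DMSO. The 1b construct carries S1179I; the 1a H77 construct carries P1496L and S2204I. Twenty-point, 3-fold dilutions were fitted four-parametrically for EC50, and CC50 was taken from multiplexed Cell Titer-Blue.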

[2] = tested on: HCV genotype 1b (Con1) replicon in HUH-7 cells; test: HCV replicon luciferase reporter assay, genotype 1b; assay type: cell-based; details: Hepatitis C virus, Huh-7, 72 h, HCV genotype 1b replicon luciferase assay, 3 days incubation, range class, read-out: LE_1b (EC50, range)
Summary of the method: as §1

[2H]C([2H])([2H])C(OC(=O)N[C@@H]1C(=O)N2C[C@H](Oc3nc(N4CCOCC4)cc4cc(OC)ccc34)C[C@H]2C(=O)N[C@]2(C(=O)NS(=O)(=O)C3CC3)C[C@H]2/C=C\CC[C@@H](C)C[C@H]1C)(C([2H])([2H])[2H])C(F)(F)F [Compound 3101, 1,1,1,3,3,3-hexadeutero-2-(trifluoromethyl)propan-2-yl((2R,6S,7R,9R,13aS,14aR,16aS,Z)-14a-((cyclopropylsulfonyl)carbamoyl)-2-((6-methoxy-3-morpholinoisoquinolin-1-yl)oxy)-7,9-dimethyl-5,16-dioxo-1,2,3,5,6,7,8,9,10,11,13a,14,14a,15,16,16a-hexadecahydrocyclopropa[e]pyrrolo[1,2-a][1,4]diazacyclopentadecin-6-yl)carbamate]
EC50 [1]: < 5.46 nM | EC50 [2]: < 5.46 nM

COc1ccc2c(O[C@@H]3C[C@H]4C(=O)N[C@]5(C(=O)NS(=O)(=O)C6CC6)C[C@H]5/C=C\CC[C@H](C)C[C@@H](C)[C@H](NC(=O)O[C@H](C)C(F)(F)F)C(=O)N4C3)nc(N3CCOCC3)cc2c1 [Compound 3102, (R)-1,1,1-trifluoropropan-2-yl ((2R,6S,7R,9S,13aS,14aR,16aS,Z)-14a-((cyclopropylsulfonyl)carbamoyl)-2-((6-methoxy-3-morpholinoisoquinolin-1-yl)oxy)-7,9-dimethyl-5,16-dioxo-1,2,3,5,6,7,8,9,10,11,13a,14,14a,15,16,16a-hexadecahydrocyclopropa[e]pyrrolo[1,2-a][1,4]diazacyclopentadecin-6-yl)carbamate]
EC50 [1]: 4.82 to 103 nM | EC50 [2]: < 5.46 nM

COc1ccc2c(O[C@@H]3C[C@H]4C(=O)N[C@]5(C(=O)NS(=O)(=O)C6CC6)C[C@H]5/C=C\CC[C@@H](C)C[C@@H](C)[C@H](NC(=O)O[C@H](C)C(F)(F)F)C(=O)N4C3)nc(N3CCOCC3)cc2c1 [Compound 3103, (R)-1,1,1-trifluoropropan-2-yl ((2R,6S,7R,9R,13aS,14aR,16aS,Z)-14a-((cyclopropylsulfonyl)carbamoyl)-2-((6-methoxy-3-morpholinoisoquinolin-1-yl)oxy)-7,9-dimethyl-5,16-dioxo-1,2,3,5,6,7,8,9,10,11,13a,14,14a,15,16,16a-hexadecahydrocyclopropa[e]pyrrolo[1,2-a][1,4]diazacyclopentadecin-6-yl)carbamate]
EC50 [1]: < 5.46 nM | EC50 [2]: < 5.46 nM

COc1ccc2c(O[C@@H]3C[C@H]4C(=O)N[C@]5(C(=O)NS(=O)(=O)C6CC6)C[C@H]5/C=C\CC[C@H](C)C[C@@H](C)[C@H](NC(=O)O[C@@H]5C[C@@H]6C[C@@H]6C5)C(=O)N4C3)nc(N3CCOCC3)cc2c1 [Compound 3104, (1R,3r,5S)-bicyclo[3.1.0]hexan-3-yl((2R,6S,7R,9S,13aS,14aR,16aS,Z)-14a-((cyclopropylsulfonyl)carbamoyl)-2-((6-methoxy-3-morpholinoisoquinolin-1-yl)oxy)-7,9-dimethyl-5,16-dioxo-1,2,3,5,6,7,8,9,10,11,13a,14,14a,15,16,16a-hexadecahydrocyclopropa[e]pyrrolo[1,2-a][1,4]diazacyclopentadecin-6-yl)carbamate]
EC50 [1]: 4.82 to 103 nM | EC50 [2]: 4.82 to 103 nM

COc1ccc2c(O[C@@H]3C[C@H]4C(=O)N[C@]5(C(=O)NS(=O)(=O)C6CC6)C[C@H]5/C=C\CC[C@@H](C)C[C@@H](C)[C@H](NC(=O)O[C@@H]5C[C@@H]6C[C@@H]6C5)C(=O)N4C3)nc(N3CCOCC3)cc2c1 [Compound 3105, (1R,3r,5S)-bicyclo[3.1.0]hexan-3-yl((2R,6S,7R,9R,13aS,14aR,16aS,Z)-14a-((cyclopropylsulfonyl)carbamoyl)-2-((6-methoxy-3-morpholinoisoquinolin-1-yl)oxy)-7,9-dimethyl-5,16-dioxo-1,2,3,5,6,7,8,9,10,11,13a,14,14a,15,16,16a-hexadecahydrocyclopropa[e]pyrrolo[1,2-a][1,4]diazacyclopentadecin-6-yl)carbamate]
EC50 [1]: < 5.46 nM | EC50 [2]: < 5.46 nM

COc1ccc2c(O[C@@H]3C[C@H]4C(=O)N[C@]5(C(=O)NS(=O)(=O)C6CC6)C[C@H]5/C=C\CC[C@H](C)C[C@@H](C)[C@H](NC(=O)OC(C)(C)C)C(=O)N4C3)nc(N3CCOCC3)cc2c1 [Compound 3106, tert-butyl ((2R,6S,7R,9S,13aS,14aR,16aS,Z)-14a-((cyclopropylsulfonyl)carbamoyl)-2-((6-methoxy-3-morpholinoisoquinolin-1-yl)oxy)-7,9-dimethyl-5,16-dioxo-1,2,3,5,6,7,8,9,10,11,13a,14,14a,15,16,16a-hexadecahydrocyclopropa[e]pyrrolo[1,2-a][1,4]diazacyclopentadecin-6-yl)carbamate]
EC50 [1]: 4.82 to 103 nM | EC50 [2]: 4.82 to 103 nM

COc1ccc2c(O[C@@H]3C[C@H]4C(=O)N[C@]5(C(=O)NS(=O)(=O)C6CC6)C[C@H]5/C=C\CC[C@@H](C)C[C@@H](C)[C@H](NC(=O)OC(C)(C)C)C(=O)N4C3)nc(N3CCOCC3)cc2c1 [Compound 3107, tert-butyl ((2R,6S,7R,9R,13aS,14aR,16aS,Z)-14a-((cyclopropylsulfonyl)carbamoyl)-2-((6-methoxy-3-morpholinoisoquinolin-1-yl)oxy)-7,9-dimethyl-5,16-dioxo-1,2,3,5,6,7,8,9,10,11,13a,14,14a,15,16,16a-hexadecahydrocyclopropa[e]pyrrolo[1,2-a][1,4]diazacyclopentadecin-6-yl)carbamate]
EC50 [1]: < 5.46 nM | EC50 [2]: < 5.46 nM

COc1ccc2c(O[C@@H]3C[C@H]4C(=O)N[C@]5(C(=O)NS(=O)(=O)C6(C)CC6)C[C@H]5/C=C\CC[C@H](C)C[C@@H](C)[C@H](NC(=O)OC(C)(C)C)C(=O)N4C3)nc(N(C)C)cc2c1 [Compound 3108, tert-butyl ((2R,6S,7R,9S,13aS,14aR,16aS,Z)-2-((3-(dimethylamino)-6-methoxyisoquinolin-1-yl)oxy)-7,9-dimethyl-14a-(((1-methylcyclopropyl)sulfonyl)carbamoyl)-5,16-dioxo-1,2,3,5,6,7,8,9,10,11,13a,14,14a,15,16,16a-hexadecahydrocyclopropa[e]pyrrolo[1,2-a][1,4]diazacyclopentadecin-6-yl)carbamate]
EC50 [1]: 4.82 to 103 nM | EC50 [2]: 4.82 to 103 nM

COc1ccc2c(O[C@@H]3C[C@H]4C(=O)N[C@]5(C(=O)NS(=O)(=O)C6(C)CC6)C[C@H]5/C=C\CC[C@@H](C)C[C@@H](C)[C@H](NC(=O)OC(C)(C)C)C(=O)N4C3)nc(N(C)C)cc2c1 [Compound 3109, tert-butyl ((2R,6S,7R,9R,13aS,14aR,16aS,Z)-2-((3-(dimethylamino)-6-methoxyisoquinolin-1-yl)oxy)-7,9-dimethyl-14a-(((1-methylcyclopropyl)sulfonyl)carbamoyl)-5,16-dioxo-1,2,3,5,6,7,8,9,10,11,13a,14,14a,15,16,16a-hexadecahydrocyclopropa[e]pyrrolo[1,2-a][1,4]diazacyclopentadecin-6-yl)carbamate]
EC50 [1]: 4.82 to 103 nM | EC50 [2]: 4.82 to 103 nM
